Test [1] has as its system thiA-lacZ fusion (ΩamyE::thiA-lacZ) in B. subtilis TH21. Format: cell-based, Bacillus subtilis. As to conditions: for repression of thiA-lacZ expression: 1 μM in shake-flask culture, early logarithmic phase (OD600=0.8-0.9), compared to minimal medium without thiamin; for repressing activity on thiA-lacZ expression: 1 μM each. The method, then:
The strategy to isolate thiamin deregulated mutants of B. subtilis was to mutagenize bacteria that contained a thiA-lacZ fusion and then screen for colonies on XGAL-containing medium that were Lac^+ (i.e. blue colonies) in the presence of TPP or thiamin. A 732 bp-long DNA fragment containing 417 bp of the 5′ promoter region of thiA was prepared by PCR using standard methods and cloned unidirectionally in front of the promoterless lacZ gene of the pDG1728 vector (Guerout-Fleury et al. (1996) Gene 180:57-61), resulting in plasmid pTH12. This vector is designed to introduce ectopic transcriptional lacZ fusions into the non-essential amyE locus of B. subtilis. Plasmid pTH12 was linearized by restriction enzyme digestion and transformed into B. subtilis PY79, selecting for colonies that were resistant to 100 μg/ml spectinomycin.

Test [2] concerns B. subtilis PY79 gene transcripts. As to the kind of experiment: Microarray profiling of transcript levels in response to TPP. Format: cell-based, Bacillus subtilis. As to conditions: wild-type cells, exponential phase, minimal medium without TPP vs with TPP. On the procedure: In order to perform microarray profiling, PY79 was grown in shake-flask cultures that contained 50 ml Spizizen minimal medium with or without added thiamin pyrophosphate. Overnight cultures were diluted to Klett=10 units into fresh medium and grown to exponential growth phase (Klett=100 units). Cells from half of the culture were collected by centrifugation, and the total RNA was immediately extracted as previously described (Lee et al. (2001) J. Bacteriol. 183:7371-7380). The remaining culture was grown to early stationary phase before RNA extraction. Early stationary phase was judged to be 30 min after glucose exhaustion; glucose content in the medium was measured by a glucose analyzer 2 (Beckman, Fullerton, Calif.) using standard procedures. Preparation of labeled cDNA targets, microarray hybridization and staining procedures, and data analysis are described in Lee et al. above.

Here are results for five compounds from patent publication US8329395B2 (priority 2003, dated 2012).

In the case of `Cc1ncc(CO)c(N)n1` [HMP, 4-amino-5-hydroxymethyl-2-methylpyrimidine], the “repression of thiA-lacZ expression” value in test [1] is recorded as 6- to 7 fold.

With `Cc1ncc(C[n+]2csc(CCO)c2C)c(N)n1` [thiamin], the “repression of thiA-lacZ expression” value in test [1] is “approximately 80 fold”.

For the compound `Cc1ncc(C[n+]2csc(CCOP(=O)(O)OP(=O)(O)O)c2C)c(N)n1` [TPP, thiamin pyrophosphate], in test [2], the “transcript ratio wt−vit/wt+vit, gene dxs (yqiE)” value is listed as “n/c”; the “transcript ratio wt−vit/wt+vit, gene thiA” value was found to be 62; the “transcript ratio wt−vit/wt+vit, gene thiC” value is “n/c”; the “transcript ratio wt−vit/wt+vit, gene thiD1 (yjbV)” value is on record as 32. In test [2], the “transcript ratio wt−vit/wt+vit, gene thiD2” value is on record as “n/c^b”; the “transcript ratio wt−vit/wt+vit, gene thiF (yjbU)” value was 90; the “transcript ratio wt−vit/wt+vit, gene thiG (yjbT)” value turned out to be 82; the “transcript ratio wt−vit/wt+vit, gene thiK” value is listed as “n/c”. Further, in test [2], the “transcript ratio wt−vit/wt+vit, gene thiL (ydiA)” value is reported as “n/c”; the “transcript ratio wt−vit/wt+vit, gene thiO (goxB)” value is recorded as 67; the “transcript ratio wt−vit/wt+vit, gene thiS (yjbS)” value is reported as 84; the “transcript ratio wt−vit/wt+vit, gene ykoC” value is 12. In test [2], the “transcript ratio wt−vit/wt+vit, gene ykoD” value is recorded as 26; the “transcript ratio wt−vit/wt+vit, gene ykoE” value is given as 17; the “transcript ratio wt−vit/wt+vit, gene ykoF” value is 20; the “transcript ratio wt−vit/wt+vit, gene ylmB” value is on record as 5.0. Besides, in test [2], the “transcript ratio wt−vit/wt+vit, gene yloS” value was 1.6; the “transcript ratio wt−vit/wt+vit, gene ytbJ” value is given as “n/c”; the “transcript ratio wt−vit/wt+vit, gene yuaA” value amounted to 7.4.

With `c1cscn1` [thiazole], the “repressing activity on thiA-lacZ expression” value in test [1] is “showed repressing activity”.

Regarding `Nc1ncnc2c1ncn2[C@@H]1O[C@H](CO)[C@@H](O)[C@H]1O` [adenosine], in test [1], the “repressing activity on thiA-lacZ expression” value is listed as “showed repressing activity”.
